We go through one molecule from patent US7041701B2, “Triterpenoid derivatives” (Univerzita Palackeho V Olomouci, priority 2000, dated 2006).

Test [1] deals with Saos2 human, p53−/−, Rb−/−. The test is described as follows: MTT cytotoxicity assay, Saos2. The format is cell-based. The following applies: 72 hours, read-out: TCS50. The text has this:
(§1) One of the parameters used as the basis for colorimetric assays is the metabolic activity of viable cells. For example, a microtiter assay which uses the tetrazolium salt MTT is now widely used to quantitate cell proliferation and cytotoxicity [Hajdúch M, Mihál V, Minarík J, Fáber E, Safárová M, Weigl E, Antálek P.: Cytotechnology, 1996, 19, 243–245]. For instance, this assay is used in drug screening programs and in chemosensitivity testing. Because tetrazolium salts are cleaved only by metabolically active cells, these assays exclusively detect viable cells. In the case of the MTT assay, yellow soluble tetrazolium salt is reduced to a coloured water-insoluble formazan salt. After it is solubilized, the formazan formed can easily and rapidly be quantified in a conventional ELISA plate reader at 570 nm (maximum absorbancy). The quantity of reduced formazan corresponds to the number of vital cells in the culture. […]
(§2) The cell suspensions that were prepared and diluted according to the particular cell type and the expected target cell density (2,500–30,000 cells per well based on cell growth characteristics) were added by pipette (80 μl) into 96/well microtiter plates. […] Usually, test compounds were evaluated at six 4-fold dilutions. […] The tumour cell survival (TCS) was calculated using the following equitation: TCS=(ODdrug exposed well/mean ODcontrol wells)×100%. […]

In the next test the test system is HT-29 human colon cancer. The test is described as follows: MTT cytotoxicity assay, HT-29. The format is cell-based. The following applies: 72 hours, read-out: TCS50.
From the text: as §1, §2
For orientation: Formazan colour is commonly taken as a measure of viable cells.

Test [2] relates to K562 human promyelocytic leukemia. Nature of the test: MTT cytotoxicity assay, K562. The format is cell-based. The following applies: 72 hours, read-out: TCS50.
From the text: as §1, §2

Test [3] deals with K562-GEM human promyelocytic leukemia, gemcitabin resistant. Nature of the test: MTT cytotoxicity assay, K562-GEM. The following applies: 72 hours, read-out: TCS50. The format is cell-based.
From the text: as §1, §2

The test system of test [4] is CEM-VCR 3/D5 human T-lymphoblastic leukemia, vincristin resistant. Nature of the test: MTT cytotoxicity assay, CEM-VCR 3/D5. The format is cell-based. The conditions noted are these: 72 hours, read-out: TCS50.
From the text: as §1, §2

Test [5] relates to CEM-VCR bulk human T-lymphoblastic leukemia, vincristin resistant. Nature of the test: MTT cytotoxicity assay, CEM-VCR bulk. The format is cell-based. The conditions noted are these: 72 hours, read-out: TCS50.
From the text: as §1, §2

The next test relates to A549 lung cancer cells. The test is described as follows: Apoptosis morphology by scanning electron microscopy. The format is cell-based, human. The following applies: A549, 2 μM, 12 hours, scanning electron microscopy (FIG. 1). The text has this: To analyse the mechanisms of betulinine-induced cytotoxicity, it is important to distinguish apoptosis from the other major form of cell death, necrosis. Finally, at the tissue level, apoptosis produces little or no inflammation, since shrunken portions of the cell are engulfed by the neighbouring cells, especially macrophages, rather than being released into the extracellular fluid. In contrast, in necrosis, cellular contents are released into the extracellular fluid, and thus have an irritant affect on the nearby cells, causing inflammation. […] Thirdly, at the molecular level, a number of biochemical processes play an important role in the induction of apoptosis. However, the majority of them are not well understood, and they result in activation of proteases and nucleases, which finally destruct key biological macromolecules—proteins and DNA. For the detection of apoptotic versus necrotic modes of cell death, the morphology was assessed by scanning electron microscopy.
A549 cell line was cultured on tissue culture treated glass coverslips in 6-well culture plates with or without 2 μM concentration of I.3 or betulinic acid at 37° C. and 5% CO2 for 12 hours. Following incubation, the coverslips were washed in Hank's buffered salt solution and processed as described below.
Cells were fixed in 2% glutaraldehyde/PBS overnight at 4° C., dried and covered with gold under vacuum. […]

For test [6], the system named is human SK-N-AS neuroblastoma. The test is described as follows: In vivo activity in xenotransplanted human neuroblastoma. Details: species or system CD-1/Ctrl-1 nu/nu nude female mice. The following applies: I.3 1 or 2 mg/mouse s.c. or i.p., 3×D1,2,5,6,9,10; SK-N-AS in nude mice (FIG. 2). On the procedure: Human neuroblastoma SK-N-AS cell line was obtained from ATTC. The line was cultured in Dulbeco's modified essential medium with 4.5 g dextrose/l, 10% of foetal calf serum, 2 mM glutamine, 100 U/ml penicillin and […] streptomycin. For transplantation purposes, only the cells in log phase were used.
CD-1/Ctrl-1 nu/nu nude female mice, 8 weeks old, 18–22 g weight were used in this study (IffaCredo, France). Animals were inoculated with 5.10^6 tumour cells subcutaneously into right inquinal region. Following transplantation, tumor growth was measured in both the control/vehicle and the treated groups using calipers. Tumor volume (TV) was calculated as follows: TV=(a^2×b)/2, where a is width and b is length The statistical significance was evaluated using a […].
Cisplatin (Platidiam 10 inj, sicc., Lachema, Czech Republic) was used as a control drug in this experiment. It was diluted in apyrogenic water and applied to animals in a final volume of 0.18 ml subcutaneously at day 1.
I.3 was synthesised as described above. It was suspended at 10 mg/ml in 5% dextrose and pH was adjusted to 8.0 with sodium hydroxide. vehicle: 5% dextrose with pH adjusted to 8.0 with sodium hydroxide. […]

As for `CC(=O)OC[C@@]1(C(=O)O)CC[C@]2(C)[C@H](CC[C@@H]3[C@@]4(C)CC[C@H](OC(C)=O)C(C)(C)[C@@H]4CC[C@]32C)C1=O` [I.3, 3β,28-diacetoxy-18-oxo-19,20,21,29,30-pentanorlupan-22-oic acid], the IC50 in test [1] came out at 1.8 µM; in the test on HT-29 human colon cancer, 1.6 µM; in test [2] it was 0.2 µM; in test [3] it was 0.9 µM; in test [4], 2.9 µM; in test [5], 2.5 µM. Further, the “morphologic markers of apoptosis” value with A549 lung cancer cells is “cytoplasmatic blebbing, cellular fragmentation and formation of apoptotic bodies”. Also, the “tumor growth (tumor volume)” value in test [6] is reported as “no tumor growth”.
